Laboratory results reported in publication PMC12281424, “A Rac-specific competitive inhibitor of guanine nucleotide binding reduces metastasis in triple-negative breast cancer” (Cell Reports Medicine, 2025).

Assays:
RAC1 [1] = biological target: RAC1 (Homo sapiens, UniProt P63000); assay: Nucleotide exchange kinetics (mant-GTP/mant-GDP fluorescence); format: biochemical; parameters: Full-length RAC1 carrying a 6xHis tag in C-terminus was purified as previously described; 6xHis (C); made in house
Method: (§1) Figure 2 Identification of a new RAC1 inhibitor (A) Effect of A41 and NSC23766 on ruffle formation (white arrows) induced by EGF (10 ng/mL) in NIH 3T3 cells in serum-free culture medium (CTL). Inhibitors were added at indicated concentration 1 h prior to EGF stimulation. To assess cytoskeleton organization, cells were incubated with Alexa Fluor 488 phalloidin to visualize F-actin. Results shown are representative of 3 independent experiments. Corresponding concentration-response curves have been established by counting the percentages of cells with ruffles (scale bars: 10 μm). (B) Immunoblot analysis and associated quantification of RAC-GTP level and total RAC expression in NIH 3T3 cells stimulated by EGF (10 ng/mL, 5 min) and pre-incubated or not (−) with NSC23766, A41, or A415 at 10^−5 M for 1 h (∗∗∗p < 0.001 vs. controls without EGF stimulation, ^###p < 0.001 vs. controls with EGF stimulation) (N > 3). (C) Representative surface plasmon resonance (SPR) sensograms of binding of immobilized RAC1 with increasing concentrations of A41 with or without EDTA (20 mM) (N > 3). (D) Representative in vitro nucleotide exchange catalyzed by the DH-PH of TIAM (10 nM) measured by the binding of fluorescent mant-GTP (1 μM) to RAC1 (0.5 μM, preloaded with GDP) in the presence of indicated concentrations of A41 (out of N = 6). Dotted lines correspond to the experimental curves, and continuous lines represent the fit of experimental points. (E) Kobs and Kmax were determined in each condition (N = 6). (F) Predicted binding modes of A4 to the NSC23766-binding site (left) or the GDP-binding pocket of RAC1 (right). In the NSC23766-binding site of RAC1, the compound A4 (carbon atoms in blue) makes 2 hydrogen bonds (green dotted line) with Ser71 (S71) and 10 hydrophobic interactions (pink dotted line) with Ala3 (A3), Lys5 (K5), Val36 (V36), Trp56 (W56), Tyr64 (Y64), and Leu67 (L67) leading to a docking score of −6.03 kcal/mol. The GDP molecule is shown with fine line. The P loop is shown in yellow, the switch 1 in orange, and the switch 2 in green. In the GDP-binding pocket, A4 establishes 6 hydrogen bonds with Gly15 (G15), Lys16 (K16), Cys18 (C18), and Lys116 (K116), 1 carbon hydrogen bond with Lys116, and 9 hydrophobic interactions with Cys18, Ile33 (I33), Lys116, Leu119 (L119), and Leu160 (L160), resulting in a docking score of −10.32 kcal/mol.
Figure 3 Inhibitory mechanism of A41 (A–D) RAC1 activity was monitored by the change in mant-GTP/GDP fluorescence induced by its binding to or releasing from RAC1 (A–D). GDP-bound RAC1 (0.5 μM) was incubated with TRIO (10 nM) and the indicated concentrations of mant-GTP without and with A41 (5 μM) (A–C). Mant-GDP-bound RAC1 (0.5 μM) was incubated with TRIO (10 nM) and GTP (1 μM) without and with A41 (5 μM) (D). AU: arbitrary fluorescence units. All experiments were done in triplicate. Kmax and Kmin are expressed as mean ± SEM. ∗∗p < 0.01 and ∗∗∗p < 0.001 vs. TRIO. (E) Deconvoluted mass spectra generated from crude mass spectrum analyses to evaluate RAC1 photolabeling with [N3]-A41 by LC-HRMS on native protein. (F) Representative mass spectra of both labeled and unlabeled […] peptide during LC-HRMS analysis of RAC1 photolabeling with [N3]-A41 after trypsin digestion. (G) Predicted binding mode of A41 to the GDP-binding pocket of RAC1. Compound A41 (orange) makes 4 hydrogen bonds (green dotted line) with Lys16 (K16), Cys18 (C18), and Lys116 (K116), 2 carbon hydrogen bond (light green dotted line) with Val14 (V14) and Lys116 (K116), and 7 hydrophobic interactions (pink dotted line) with Cys18 (C18), Phe28 (F28), Lys116 (K116), Ala159 (A159), and Leu160 (L160). The P loop is shown in yellow, the switch 1 in orange, and the switch 2 in green.
Full-length RAC1 carrying a 6xHis tag in C-terminus was purified as previously described.[64] Full-length RAC2, RHOG, RHOA and CDC42 were purified as previously described.[64]^,[65] […]

[2] = test system: RAC1-dependent membrane ruffle formation in NIH 3T3 cells; assay: EGF-induced membrane ruffle formation; format: cell-based
Method: Figure 2 Identification of a new RAC1 inhibitor (A) Effect of A41 and NSC23766 on ruffle formation (white arrows) induced by EGF (10 ng/mL) in NIH 3T3 cells in serum-free culture medium (CTL). Inhibitors were added at indicated concentration 1 h prior to EGF stimulation. To assess cytoskeleton organization, cells were incubated with Alexa Fluor 488 phalloidin to visualize F-actin. Results shown are representative of 3 independent experiments. Corresponding concentration-response curves have been established by counting the percentages of cells with ruffles (scale bars: 10 μm). (B) Immunoblot analysis and associated quantification of RAC-GTP level and total RAC expression in NIH 3T3 cells stimulated by EGF (10 ng/mL, 5 min) and pre-incubated or not (−) with NSC23766, A41, or A415 at 10^−5 M for 1 h (∗∗∗p < 0.001 vs. controls without EGF stimulation, ^###p < 0.001 vs. controls with EGF stimulation) (N > 3). […] (D) Representative in vitro nucleotide exchange catalyzed by the DH-PH of TIAM (10 nM) measured by the binding of fluorescent mant-GTP (1 μM) to RAC1 (0.5 μM, preloaded with GDP) in the presence of indicated concentrations of A41 (out of N = 6). […] (E) Kobs and Kmax were determined in each condition (N = 6). […]
After indicated treatments, cells were fixed with 4% paraformaldehyde and permeabilized in PBS 0.5% Triton X-100. […] Cancer cells were detected with firefly luciferase antibody (ab21176, Abcam) (dilution 1/500) overnight at room temperature, followed by secondary Alexa 488-labeled anti-rabbit antibody (dilution 1/1000). […] After staining, cells were mounted in Prolong gold antifade reagent with DAPI and images were captured by a fluorescence microscope. […]
Supp. […] For each molecule, druglikeness has been assessed according to Lipinski’s rules: molecular weight (MW)<500; high lipophilicity (LogP<5); less than 5 hydrogen bond donors (HBD); less than 10 hydrogen bond acceptors (HBA). The log P was calculated by using OSIRIS – Data Warrior software. […] IC50 was determined experimentally from the inhibition

[3] = test system: NIH/3T3 cell proliferation; assay: Cell proliferation (xCELLigence); format: cell-based; conditions: 10^-5 M
Excerpt: (§2) Supplementary Fig. 3: Example of one pharmacophore model used for virtual screening. (a) The pharmacophore model shown was created based on RAC1 (grey) and NSC23766 (orange) interaction. The pharmacophore model is formed by two hydrogenbond acceptor(HBA)features,one orientedtowardsthe hydroxylgroup of Ser71 (S71) and the other towards the amine group of Gln74 (Q74), one hydrogen bond donor (HBD) feature pointed to the oxygenatom of Leu70 (L70) and two hydrophobic features (HY) located on certain carbon atoms of NSC23766 and facing residues Val36 (V36), Ala59 (A59), Tyr64 (Y64) and Leu67 (L67). The spheres correspond to locationconstraint. The pharmacophoremodel was completedby thirteen exclusion spheres centered on the main residues of RAC1 defining the binding site. The P loop, the switch 1 and the switch 2 are shown in yellow, orange and green respectively. (b) Impact of different screening molecules (10^-5 M) on NIH/3T3 cell adhesion (xCELLingence Real-time cellanalysis, Agilent), migration (CYTOO Mobility plates) and proliferation (xCELLingence Real-time cell analysis, Agilent) .The level of RAC activation is determinedby the detection of RAC-GTP (pull-down assay) in NIH/3T3 cell treated with EGF (10 ng/mL) and the differentmolecules and normalize to the level of RAC activity measuredin the presenceof the reference RAC inhibitor EHT1864.

[4] = test system: RAC1-GTP levels in MDA-MB-468 Luc cells; assay: RAC-GTP immunofluorescence; format: cell-based; conditions: 10^-5 M, 1 h
Method: Luciferase (Luc, green) was used to detect the cells. […] (C) Quantification of colony number of indicated cancer cell lines in the presence of A41 (10 μM) expressed as the percentage of control in the absence of A41. […] (D) Immunoblot analysis and corresponding quantification of AKT and P44/42 expression and phosphorylation (pAKT, p44/42) in MDA-MB-468 Luc cells in the absence (−) and presence of NSC23766 or A41 (1 h at 10^−5 M). […] (E) 3D invasion assay of MDA-MB-468 Luc and cancer-associated fibroblasts (CAFs) and corresponding quantification (scale bars: 200 μm).
After indicated treatments, cells were fixed with 4% paraformaldehyde and permeabilized in PBS 0.5% Triton X-100. To assess RAC1 activity, cells were then incubated with RAC-GTP antibody (26903, NewEast Biosciences, King of Prussia, Pa) (dilution 1/500) overnight at room temperature, followed by secondary Alexa 568-labeled anti-mouse antibody (dilution 1/1000). Cancer cells were detected with firefly luciferase antibody (ab21176, Abcam) (dilution 1/500) overnight at room temperature, followed by secondary Alexa 488-labeled anti-rabbit antibody (dilution 1/1000). To assess cytoskeleton organization, cells were incubated with Alexa Fluor 488 phalloidin (A12379, Invitrogen) to visualize F-actin. After staining, cells were mounted in Prolong gold antifade reagent with DAPI and images were captured by a fluorescence microscope.

NIH/3T3 cell migration = assay: 1D cell migration (CYTOO plates); format: cell-based; conditions: 10^-5 M
Method: NIH3T3cells (1000/well) were seeded in a 96 well plate with […] fibronectin stripes (CytooPlates Motility, CYTOO) in medium with 1% SVF and allowed to spread for 4 h before capturing time-lapse images for 24 h (image/10 min) on a Widefield Leica DMI 6000B drove with Metamorph software. Cells speed was measured with ImageJ software.
as §2, with “The pharmacophoremodel was completedby thirteen exclusion spheres centered on the main residues of RAC1 defining the binding site. The P loop, the switch 1 and the switch 2 are shown in yellow, orange and green respectively.” left out
(§3) Supplementary Fig. 4: A41 inhibits RAC-dependent cell functions. (a) Representative records of single NIH/3T3 cell migration on micropatterned fibronectin lines (CYTOO Mobility plates) in the absence (Control)and presenceA41 at 10^-5 M (left panel) and corresponding quantification of migration speed (right panel) (scale bar: 20µm). […] (b) Typical curves showing the cell index representing the adhesion of NIH/3T3 fibroblast (xCELLingence Real-time cell analysis, Agilent) under control condition (Control) and pre-treated with 10 µM A41 or NSC23766 (left panel) and corresponding quantification of cell adhesion speed (right panel). […]

RAC1 [5] = biological target: T1, RAC1 (Mus musculus, UniProt P63001); assay: RAC-GTP pull-down assay, EGF-stimulated NIH/3T3 fibroblasts; format: cell-based; conditions: 10^-5 M; for RAC1 activation (active GTP-bound RAC1): 1 h, EGF 10 ng/mL 5 min
T1 construct: endogenous in cells; host or cells: NIH/3T3 fibroblasts (ATCC CRL-1658), EGF-stimulated
Method: as §1, with “In the GDP-binding pocket, A4 establishes 6 hydrogen bonds with Gly15 (G15), Lys16 (K16), Cys18 (C18), and Lys116 (K116), 1 carbon hydrogen bond with Lys116, and 9 hydrophobic interactions with Cys18, Ile33 (I33), Lys116, Leu119 (L119), and Leu160 (L160), resulting in a docking score of −10.32 kcal/mol.” left out
Pull-down assay using GST-PBD fusion proteins were performed on NIH-3T3 lysates to assess RAC1 activity as previously described.[63] The precipitated active RAC was subjected to SDS-PAGE and detected by immunoblot with anti-RAC1 antibody (BD biosciences) (dilution 1/1000). […]
(§4) screening molecules (10^-5 M) on NIH/3T3 cell adhesion (xCELLingence Real-time cellanalysis, Agilent), migration (CYTOO Mobility plates) and proliferation (xCELLingence Real-time cell analysis, Agilent) .The level of RAC activation is determinedby the detection of RAC-GTP (pull-down assay) in NIH/3T3 cell treated with EGF (10 ng/mL) and the differentmolecules and normalize to the level of RAC activity measuredin the presenceof the reference RAC inhibitor EHT1864.

NIH/3T3 cell adhesion = assay: Cell adhesion assay (xCELLigence impedance); format: cell-based; conditions: 10^-5 M
Method: NIH3T3cells (10000/well) were seeded in a 96 well plate microtiter xCELLigence assay plate (E-Plate) (ACEA Biosciences Inc.) and placed on the Real-time xCELLigence Cell Analyzer (Roche Applied Science) platform at 37°C to measure the “cell index” every 5 min for a period of 6 h. The cell index unit is defined as (Rn − Rb)/15. Rn is the cell electrode impedance of the well when it contains cells. Rb is the background impedance of the well with the media alone.
as §4, with “Supplementary Fig. 3: Example of one pharmacophore model used for virtual screening. (a) The pharmacophore model shown was created based on RAC1 (grey) and NSC23766 (orange) interaction. […] (b) Impact of different screening” for “screening”
as §3

Row | SMILES | Inhibition of RAC1 activity (nucleotide exchange assay) (RAC1 [1]) | inhibitory effect on RAC1 [2] | Proliferation (% ctrl) [3] | effect on RAC1 activity [4] | Migration (% inhib) (NIH/3T3 cell migration) | Rac-GTP level (relative to EHT1864) (RAC1 [5]; EGF 10 ng/mL) | Adhesion (% inhib) (NIH/3T3 cell adhesion) | RAC1 activation (active GTP-bound RAC1) (RAC1 [5])
1 | COc1ccc(OC)c(NS(=O)(=O)c2ccc(NC(=O)CCSc3ccc(N=[N+]=[N-])cc3)cc2)c1 [[N3]-A41] | 46% | – | – | – | – | – | – | –
2 | CCC(=O)Nc1ccc(S(=O)(=O)Nc2cc(OC)ccc2OC)cc1 [Compound A420] | – | loss of the inhibitory effect on RAC1 | – | – | – | – | – | –
3 | O=c1cc(CN2CCOCC2)occ1OCCCCCSc1ccnc2cc(C(F)(F)F)ccc12 [EHT1864] | – | – | 101% | no | 35% | 1.00 | 32% | –
4 | CCN(CC)CCCC(C)Nc1nc(C)cc(Nc2ccc3nc(C)cc(N)c3c2)n1 (centres unmarked) [NSC23766] | – | – | 131% | little effect | 20% | – | 34% | no significant effect
5 | COc1ccc(OC)c(NC(=O)c2ccc(NC(=O)CCSc3ccc(C)cc3)cc2)c1 [Compound A415] | – | loss of the inhibitory effect on RAC1 | – | – | – | – | – | no significant effect
